# Test results published in patent publication US4994477A, “Heterocyclic renin inhibitors” (Abbott Laboratories, priority 1988, dated 1991).
# Target: T1, human renal renin (Homo sapiens, UniProt P00797)
# T1 construct: human renal renin, free from acid proteolytic activity; from tissue; host or cells: human kidney (from the word 'renal')
# T1 sequence (P00797 67-406): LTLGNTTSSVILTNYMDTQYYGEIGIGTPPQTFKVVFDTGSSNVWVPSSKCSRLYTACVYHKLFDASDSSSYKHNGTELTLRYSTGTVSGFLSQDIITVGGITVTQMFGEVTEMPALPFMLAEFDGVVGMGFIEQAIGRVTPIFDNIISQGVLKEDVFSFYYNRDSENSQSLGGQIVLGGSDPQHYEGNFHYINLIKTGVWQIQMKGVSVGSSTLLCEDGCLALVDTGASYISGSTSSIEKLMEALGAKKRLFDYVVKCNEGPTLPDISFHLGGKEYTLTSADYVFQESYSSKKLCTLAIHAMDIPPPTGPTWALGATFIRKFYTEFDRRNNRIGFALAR
# Test: inhibition of human renal renin in vitro, angiotensin I formed measured by radioimmunoassay
# Assay type: biochemical
# Details: human angiotensinogen substrate, 37 degrees C, pH 6.0
# Method: At the end of the incubation, the amount of angiotensin I formed is measured by radioimmunoassay and the molar concentration required to cause 50% inhibition, expressed as the IC50, is calculated.
row,Compound,IC50
1,"CC1=C(C(=O)N[C@@H](Cc2c[nH]cn2)C(=O)N[C@@H](CC2CCCCC2)[C@@H](O)[C@@H](O)CC(C)C)Cc2ccccc21 [Example 42, N-(3-Methylindenyl-2-carbonyl)-His Amide of 2(S)-Amino-1-cyclohexyl-3(R),4(S)-dihydroxy-6-methylheptane]",0.2 µM
2,"CC(C)C[C@H](O)[C@H](O)[C@H](CC1CCCCC1)NC(=O)CN1Cc2c([nH]c3ccccc23)C1=O [Example 75, (2'S,3'R,4'S)-2-[N-(1-cyclohexyl-3,4-dihydroxy-6-methyl-2-heptyl)carbamoyl]methyl-1,2,3,4-tetrahydropyrrolo[3,4-b]indol-3-one]",0.2 µM
3,"O=C(N[C@@H](Cc1c[nH]cn1)C(=O)NCC(O)CO)c1[nH]c2ccccc2c1CCC=CC1CCCCC1 (stereo partly drawn) [Example 127, N-[3-(4-Cyclohexylbut-3-enyl)indolyl-2-carbonyl]-His Amide of 3-Amino-1,2-propanediol]",7 µM
4,"CC(C)C[C@H](O)[C@H](O)[C@H](CC1CCCCC1)NC(=O)[C@H](Cc1c[nH]cn1)NC(=O)N1CCc2ccccc2C1 [Example 114, N-(1,2,3,4-Tetrahydroisoquinolinyl-2-carbonyl)-His Amide of 2(S)-Amino-1-cyclohexyl-3(R),4(S)-dihydroxy-6-methylheptane]",0.063 µM
5,"CCN1C[C@@H]([C@H](O)[C@H](CC2CCCCC2)NC(=O)C(Cc2cc[nH]n2)N2Cc3c([nH]c4ccccc34)C2=O)OC1=O (stereo partly drawn) [Example 89, (1'RS,2""S,3""R,5""'S)-2-[1-[N-[1-Cyclohexyl-3-hydroxy-3-(3-ethyloxazolidin-2-on-5-yl)-2-propyl]carbamoyl]-2-(3-pyrazolyl)ethyl]-1,2,3,4-tetrahydropyrrolo[3,4-b]indol-3-one]",0.089 µM
6,"CC(C)C[C@H](O)[C@H](O)[C@H](CC1CCCCC1)NC(=O)[C@H](Cc1c[nH]cn1)NC(=O)c1cc2ccccc2[nH]1 [Example 35, N-(Indolyl-2-carbonyl)-His Amide of 2(S)-Amino-1-cyclohexyl-3(R),4'(S)-dihydroxy-6-methylheptane]",0.0033 µM
7,"CC(C)C[C@H](O)[C@H](O)[C@H](CC1CCCCC1)NC(=O)[C@H](Cc1c[nH]cn1)NC(=O)c1cc2ccccc2o1 [Example 43, N-(Benzofuranyl-2-carbonyl)-His Amide of 2(S)-Amino-1-cyclohexyl-3(R),4(S)-dihydroxy-6-methylheptane]",0.01 µM
8,"CC(C)C[C@H](O)[C@H](O)[C@H](CC1CCCCC1)NC(=O)[C@H](Cc1cscn1)N1Cc2c([nH]c3ccccc23)C1=O [Example 81, (1'S,2""S,3""R,4""S)-2-[1-[N-(1-cyclohexyl-3,4-dihydroxy-6-methyl-2-heptyl)carbamoyl]-2-(4-thiazolyl)ethyl]-1,2,3,4-tetrahydropyrrolo[3,4-b]indol-3-one]",0.005 µM
9,"CCN1C[C@@H]([C@H](O)[C@H](CC2CCCCC2)NC(=O)[C@H](Cc2c[nH]cn2)N2Cc3c([nH]c4ccccc34)C2=O)OC1=O [Example 59, (1'S,2""S,3""R,5'""S)-2-[1-[N-[1-Cyclohexyl-3-hydroxy-3-(3-ethyloxazolidin-2-on-5-yl)-2-propyl]carbamoyl]-2-(4-imidazolyl)ethyl]-1,2,3,4-tetrahydropyrrolo[3,4-b]indol-3-one]",0.019 µM
10,"CCN1C[C@@H]([C@H](O)[C@H](CC2CCCCC2)NC(=O)[C@H](Cc2c[nH]cn2)NC(=O)c2cc3ccccc3[nH]2)OC1=O [Example 51, N-(Indolyl-2-carbonyl)-His-Amide of (2'S,1'R,5S)-3-Ethyl-5-(1'-hydroxy-2'-amino-3'-cyclohexylpropyl)oxazolidin-2one]",0.012 µM
11,CC(C)C[C@H](O)[C@H](O)[C@H](CC1CCCCC1)NC(=O)[C@H](Cc1c[nH]cn1)NC(=O)c1nc2ccccc2n1Cc1ccccc1 [Example 48],0.17 µM
12,"CC(C)C[C@H](O)[C@H](O)[C@H](CC1CCCCC1)NC(=O)[C@H](Cc1c[nH]cn1)NC(=O)c1cc2ccccc2n1C [Example 41, N-(1-Methylindolyl-2-carbonyl)-His Amide of 2(S)-Amino-1-cyclohexyl-3(R),4(S)-dihydroxy6-methylheptane]",0.16 µM
13,"O=C(N[C@@H](Cc1c[nH]cn1)C(=O)NCC(O)CO)c1[nH]c2ccccc2c1CCCC1CCCCC1 (stereo partly drawn) [Example 125, N-[3-(3-Cyclohexylpropyl)indolyl-2-carbonyl]-His Amide of 3-Amino-1,2-propanediol]",3.8 µM
14,"CC(C)C[C@H](O)[C@H](O)[C@H](CC1CCCCC1)NC(=O)[C@H](CCC(=O)O)NC(=O)c1cc2ccccc2[nH]1 [Example 38, N-(Indolyl-2-carbonyl)-Glu Amide of 2(S)-Amino-1-cyclohexyl-3(R),4(S)-dihydroxy-6-methylheptane]",0.13 µM
15,"CC(C)C[C@H](O)[C@H](O)[C@H](CC1CCCCC1)NC(=O)[C@H](Cc1c[nH]cn1)NC(=O)c1nc2ccccc2s1 [Example 45, N-(Benzothiazolyl-2-carbonyl)-His Amide of 2(S)-Amino-1-cyclohexyl-3(R),4(S)-dihydroxy-6-methylheptane]",0.031 µM
16,"CCN1C[C@@H]([C@H](O)[C@H](CC2CCCCC2)NC(=O)C(Cc2cscn2)N2Cc3c([nH]c4ccccc34)C2=O)OC1=O (stereo partly drawn) [Example 88, (1'RS,2""S,3""R,5""'S)-2-[1-[N-[1-Cyclohexyl-3-hydroxy-3-(3-ethyloxazolidin-2-on-5-yl)-2-propyl]carbamoyl]-2-(4-thiazolyl)ethyl]-1,2,3,4-tetrahydropyrrolo[3,4-b]indol-3-one]",0.028 µM
17,"CC(C)C[C@H](O)[C@H](O)[C@H](CC1CCCCC1)NC(=O)[C@H](Cc1c[nH]cn1)N1Cc2c([nH]c3ccccc23)C1=O [Example 58, (1'S,2""S,3""R,4""S)-2-[1-[N-(1-Cyclohexyl-3,4-dihydroxy-6-methyl-2-heptyl)carbamoyl]-2-(4-imidazolyl)ethyl]-1,2,3,4-tetrahydropyrrolo[3,4-b]indol-3-one]",0.0082 µM
18,"CC(C)C[C@H](O)[C@H](O)[C@H](CC1CCCCC1)NC(=O)[C@H](Cc1c[nH]cn1)N1CCc2c([nH]c3ccccc23)C1=O [Example 101, (1'S,2""S,3""R,4""S)-2-[1-[N-(1-Cyclohexyl-3,4-dihydroxy-6-methyl-2-heptyl)carbamoyl]-2-(4-imidazolyl)ethyl]-1,2,3,4-tetrahydro-9H-pyrido[3,4-b]indol-1-one]",0.067 µM
19,"CC(C)C[C@H](O)[C@H](O)[C@H](CC1CCCCC1)NC(=O)[C@H](CCC(=O)OCc1ccccc1)NC(=O)c1cc2ccccc2[nH]1 [Example 37, N-(Indolyl-2-carbonyl)-γ-benzyl-Glu Amide of 2(S)-Amino-1-cyclohexyl-3(R),4(S)-dihydroxy-6-methylheptane]",0.13 µM
20,"CCCC[C@H](NC(=O)c1cc2ccccc2[nH]1)C(=O)N[C@@H](CC1CCCCC1)[C@@H](O)[C@@H](O)CC(C)C [Example 40, N-(Indolyl-2-carbonyl)-Nle Amide of 2(S)-Amino-1-cyclohexyl-3(R),4(S)-dihydroxy-6-methylheptane]",0.015 µM
21,"CC(C)C[C@H](O)[C@H](O)[C@H](CC1CCCCC1)NC(=O)[C@H](Cc1cc[nH]n1)N1Cc2c([nH]c3ccccc23)C1=O [Example 87, (1'S,2""S,3""R,4""S)-2-[1-[N-(1-Cyclohexyl-3,4-dihydroxy-6-methyl-2-heptyl)carbamoyl]-2-(3-pyrazolyl)ethyl]-1,2,3,4-tetrahydropyrrolo[3,4-b]indol-3-one]",0.0095 µM
